Assay results taken from patent US20250073255A1, “USE OF FA-TYPE LIPID COMPOUNDS IN PREPARATION OF NUCLEIC ACID DELIVERY REAGENT AND RELATED PRODUCT” (BEIJING BAISHIKANG PHARMACEUTICAL TECHNOLOGY (BSJPHARMA) …, priority 2021, published 2025).

System: C57BL/6 male mice
Test: In vivo delivery study of lipid nucleic acid mixture (oral gavage, RT-qPCR of PGY-sRNA-26 in tissues)
Design: species or system mouse
Settings: for oral delivery of single-stranded sRNA nucleic acids into mouse blood / oral delivery of single-stranded sRNA nucleic acids into mouse brain tissue / oral delivery of single-stranded sRNA nucleic acids into mouse femur / oral delivery of single-stranded sRNA nucleic acids into mouse heart tissue / oral delivery of single-stranded sRNA nucleic acids into mouse intestinal tissue / oral delivery of single-stranded sRNA nucleic acids into mouse kidney tissue / oral delivery of single-stranded sRNA nucleic acids into mouse liver tissue / oral delivery of single-stranded sRNA nucleic acids into mouse lung tissue / oral delivery of single-stranded sRNA nucleic acids into mouse pancreatic tissue / oral delivery of single-stranded sRNA nucleic acids into mouse spleen tissue / oral delivery of single-stranded sRNA nucleic acids into mouse stomach tissue: 100 μg lipid:10 nmol PGY-sRNA-26, sampled after 12 hours; for oral delivery of single-stranded sRNA nucleic acids into mouse heart tissue: vs free uptake group; for oral delivery of single-stranded sRNA nucleic acids into mouse intestinal tissue: intestine; for oral delivery of single-stranded sRNA nucleic acids into mouse pancreatic tissue: pancreas
Procedure, shortened: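 Lipid (100 μg) and 10 nmol 3'-methylated single-stranded PGY-sRNA-26 were heated at 90 °C for 15 min, then given by oral gavage to mice fasted 12 h. Controls were saline and free sRNA. Blood and tissues were taken at 12 h, and levels were measured by stem-loop RT-qPCR relative to U6.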

SMILES	oral delivery of single-stranded sRNA nucleic acids into mouse blood	oral delivery of single-stranded sRNA nucleic acids into mouse brain tissue	oral delivery of single-stranded sRNA nucleic acids into mouse femur	oral delivery of single-stranded sRNA nucleic acids into mouse heart tissue	oral delivery of single-stranded sRNA nucleic acids into mouse intestinal tissue	oral delivery of single-stranded sRNA nucleic acids into mouse kidney tissue	oral delivery of single-stranded sRNA nucleic acids into mouse liver tissue	oral delivery of single-stranded sRNA nucleic acids into mouse lung tissue	oral delivery of single-stranded sRNA nucleic acids into mouse pancreatic tissue	oral delivery of single-stranded sRNA nucleic acids into mouse spleen tissue	oral delivery of single-stranded sRNA nucleic acids into mouse stomach tissue	overall delivery efficacy: delivering nucleic acids into each tissue and blood tested (100 μg lipid:10 nmol PGY-sRNA-26, all tissues and blood tested)
CCCCCCCCCCCCCC(=O)OCCCCCCCCCCCCCCC(C)C [Lipid 829, 15-methylhexadecyl tetradecanoate]	can effectively orally deliver	can effectively orally deliver	can effectively orally deliver	can effectively orally deliver	can effectively orally deliver	can effectively orally deliver	can effectively orally deliver	can effectively orally deliver	can effectively orally deliver	can effectively orally deliver	can effectively orally deliver	–
CCCCCCCCCCCCCCC=O [Lipid 574]	can effectively orally deliver	can effectively orally deliver	can effectively orally deliver	can effectively orally deliver	–	can effectively orally deliver	can effectively orally deliver	–	–	can effectively orally deliver	can effectively orally deliver	–
CCCCCCCC/C=C/CCCCCCCCO [Lipid 600, (E)-octadec-9-en-1-ol]	can effectively orally deliver	can effectively orally deliver	can effectively orally deliver	can effectively orally deliver	can effectively orally deliver	can effectively orally deliver	can effectively orally deliver	can effectively orally deliver	–	can effectively orally deliver	can effectively orally deliver	best delivery efficacy
CCCCCC/C=C\CCCCCCCC(=O)OC(CC)C(C)CCC (stereo not drawn) [Lipid 827, 4-methylheptan-3-yl (Z)-hexadec-9-enoate]	can effectively orally deliver	can effectively orally deliver	can effectively orally deliver	can effectively orally deliver	can effectively orally deliver	can effectively orally deliver	can effectively orally deliver	can effectively orally deliver	can effectively orally deliver	can effectively orally deliver	can effectively orally deliver	–
CCCCCC/C=C\CCCCCCCC(=O)OCCCCCCCCCCCCCCCCCCCCCCCC [Lipid 819, tetracosyl (Z)-hexadec-9-enoate]	can effectively orally deliver	can effectively orally deliver	can effectively orally deliver	can effectively orally deliver	can effectively orally deliver	can effectively orally deliver	can effectively orally deliver	can effectively orally deliver	can effectively orally deliver	can effectively orally deliver	can effectively orally deliver	–
CCCCCCCCCCCCCCCCCC(=O)N[C@@H](Cc1ccccc1)C(=O)O [Lipid 830, (2S)-2-(octadecanoylamino)-3-phenylpropanoic acid]	can effectively orally deliver	can effectively orally deliver	can effectively orally deliver	can effectively orally deliver	can effectively orally deliver	can effectively orally deliver	can effectively orally deliver	can effectively orally deliver	can effectively orally deliver	can effectively orally deliver	can effectively orally deliver	–
CCCCCC1C(=O)CCC1CC(=O)O (stereo not drawn) [Lipid 616, 2-(3-oxo-2-pentylcyclopentyl)-acetic acid]	can effectively orally deliver	can effectively orally deliver	can effectively orally deliver	can effectively orally deliver	can effectively orally deliver	–	can effectively orally deliver	can effectively orally deliver	–	can effectively orally deliver	–	–
CCCCCC/C=C\CCCCCCCC(=O)OCCCCCCCCCCCCCCC [Lipid 821, pentadecyl (Z)-hexadec-9-enoate]	can effectively orally deliver	can effectively orally deliver	can effectively orally deliver	can effectively orally deliver	can effectively orally deliver	can effectively orally deliver	can effectively orally deliver	can effectively orally deliver	can effectively orally deliver	can effectively orally deliver	can effectively orally deliver	–
CC/C=C\C/C=C\C/C=C\CCCCCCCC(=O)OCCCCCCCCCCCCCC [Lipid 824, tetradecyl (9Z,12Z,15Z)-octadeca-9,12,15-trienoate]	can effectively orally deliver	can effectively orally deliver	can effectively orally deliver	can effectively orally deliver	can effectively orally deliver	can effectively orally deliver	can effectively orally deliver	can effectively orally deliver	can effectively orally deliver	can effectively orally deliver	can effectively orally deliver	–
